# Molecular target: T1, GST-ALK5 (Homo sapiens, UniProt P36897)
# T1 sequence (P36897 34-503): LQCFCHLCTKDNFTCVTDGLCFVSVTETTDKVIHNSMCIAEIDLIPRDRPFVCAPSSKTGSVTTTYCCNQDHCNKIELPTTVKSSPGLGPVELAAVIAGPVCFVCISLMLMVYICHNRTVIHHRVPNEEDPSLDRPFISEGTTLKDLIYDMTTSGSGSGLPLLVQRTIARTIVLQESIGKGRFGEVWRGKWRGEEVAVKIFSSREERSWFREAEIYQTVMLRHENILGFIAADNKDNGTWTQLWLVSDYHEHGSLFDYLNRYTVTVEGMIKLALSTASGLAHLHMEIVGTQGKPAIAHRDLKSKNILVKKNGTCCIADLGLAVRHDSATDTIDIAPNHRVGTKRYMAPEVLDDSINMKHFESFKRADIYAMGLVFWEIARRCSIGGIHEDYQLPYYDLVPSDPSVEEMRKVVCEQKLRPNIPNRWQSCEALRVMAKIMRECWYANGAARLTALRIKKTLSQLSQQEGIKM
# Assay: In-vitro (enzyme) kinase assay, 384-well flashplate, GST-SMAD2 substrate
# Format: biochemical
# Conditions: 31.2 nM GST-ALK5, 439 nM GST-SMAD2, 3 mM ATP, 30° C., 45 min
# Procedure: In-Vitro (Enzyme) Assay for Determination of the Efficacy of Inhibitors of the Inhibition of TGF-Beta-Mediated Effects
# The kinase assay was carried out as 384-well flashplate assay. 31.2 nM of GST-ALK5, 439 nM of GST-SMAD2 and 3 mM of ATP (with 0.3 μCi of ^33P-ATP/well) were incubated in a total volume of 35 μl (20 mM of HEPES, 10 mM of MgCl2, 5 mM of MnCl2, 1 mM of DTT, 0.1% of BSA, pH 7.4) without or with test substance (5-10 concentrations) at 30° C. for 45 min. The reaction was stopped using 25 μl of 200 mM EDTA solution, filtered with suction at room temperature after 30 min, and the wells were washed with 3 times 100 μl of 0.9% NaCl solution. Radioactivity was measured in the TopCount. The IC50 values were calculated using RS1 (Table 1). Above and below, all temperatures were indicated in ° C.
row,IC50,Structure (SMILES)
1,< 100 nM,"Cc1cccc(-c2nc(OCc3cnn(C)c3)nc3sc(C(N)=O)c(N)c23)n1 [No 33, 5-Amino-2-(1-methyl-1H-pyrazol-4-ylmethoxy)-4-(6-methyl-pyridin-2-yl)-thieno[2,3-d]pyrimidine-6-carboxylic acid amide]"
2,< 100 nM,"Cc1cccc(-c2nc(OCCO)nc3sc(C(N)=O)c(N)c23)n1 [No 26, 5-Amino-2-(2-hydroxy-ethoxy)-4-(6-methyl-pyridin-2-yl)-thieno[2,3-d]pyrimidine-6-carboxylic acid amide]"
3,100 to 500 nM,"NC(=O)c1sc2nc(OCCOCCO)nc(-c3cccc(Cl)c3)c2c1N [No 66, 5-Amino-4-(3-chloro-phenyl)-2-[2-(2-hydroxy-ethoxy)-ethoxy]-thieno[2,3-d]pyrimidine-6-carboxylic acid amide]"
4,100 to 500 nM,"CC(C)(CO)COc1nc(-c2cccc(Cl)c2)c2c(N)c(C(N)=O)sc2n1 [No 68, 5-Amino-4-(3-chloro-phenyl)-2-(3-hydroxy-2,2-dimethyl-propoxy)-thieno[2,3-d]pyrimidine-6-carboxylic acid amide]"
5,< 100 nM,"COc1nc(-c2cccc(C)n2)c2c(N)c(C(N)=O)sc2n1 [No 25, 5-Amino-2-methoxy-4-(6-methyl-pyridin-2-yl)-thieno[2,3-d]pyrimidine-6-carboxylic acid amide]"
6,100 to 500 nM,"Cc1ccc(-c2nc(O[C@H](C)[C@@H](C)O)nc3sc(C(N)=O)c(N)c23)o1 [No 34, 5-Amino-2-((1R,2R)-2-hydroxy-1-methyl-propoxy)-4-(5-methyl-furan-2-yl)-thieno[2,3-d]pyrimidine-6-carboxylic acid amide]"
7,< 100 nM,"Cc1ncsc1CCOc1nc(-c2cccc(Cl)c2)c2c(N)c(C(N)=O)sc2n1 [No 51, 5-Amino-4-(3-chloro-phenyl)-2-[2-(4-methyl-thiazol-5-yl)-ethoxy]-thieno[2,3-d]pyrimidine-6-carboxylic acid amide]"
8,> 1000 nM,"Cc1ccc(-c2nc(OCCN3CCOCC3)nc3sc(C(N)=O)c(N)c23)o1 [No 20, 5-Amino-4-(5-methyl-furan-2-yl)-2-(2-morpholin-4-yl-ethoxy)-thieno[2,3-d]pyrimidine-6-carboxylic acid amide]"
9,> 1000 nM,"NC(=O)c1sc2nc(OCC3CC3)nc(-c3cccc(C(F)(F)F)c3)c2c1N [No 14, 5-Amino-2-cyclopropylmethoxy-4-(3-trifluoromethyl-phenyl)-thieno[2,3-d]pyrimidine-6-carboxylic acid amide]"
10,< 100 nM,"COc1nc(-c2cccc(Cl)c2)c2c(N)c(C(N)=O)sc2n1 [No 6, 5-Amino-4-(3-chloro-phenyl)-2-methoxy-thieno[2,3-d]pyrimidine-6-carboxylic acid amide]"
11,< 100 nM,"NC(=O)COc1nc(-c2cccc(Cl)c2)c2c(N)c(C(N)=O)sc2n1 [No 56, 5-Amino-2-carbamoylmethoxy-4-(3-chloro-phenyl)-thieno[2,3-d]pyrimidine-6-carboxylic acid amide]"
12,500 to 1000 nM,"NC(=O)c1sc2nc(OCC3CCCC3)nc(-c3cccc(Cl)c3)c2c1N [No 7, 5-Amino-4-(3-chloro-phenyl)-2-cyclopentylmethoxy-thieno[2,3-d]pyrimidine-6-carboxylic acid amide]"

row,Structure (SMILES),IC50
1,"CC(C)(C)OCCOc1nc(-c2cccc(Cl)c2)c2c(N)c(C(N)=O)sc2n1 [No 11, 5-Amino-2-(2-tert-butoxy-ethoxy)-4-(3-chloro-phenyl)-thieno[2,3-d]pyrimidine-6-carboxylic acid amide]",100 to 500 nM

# From patent publication US20120101095A1, “ALKOXY-THIENOPYRIMIDINES AS TGF-BETA RECEPTOR KINASE MODULATORS” (priority 2009, published 2012)
